This is an account of results in US20090136461A1, “Neuronal differentiation method of adult stem cells using small molecules” (priority 2007, published 2009).

Holding throughout (assay): Neuronal differentiation, inverted microscope morphology
Format in all cases: cell-based, Fischer rats

For experiment [1], the system named is adipose-derived stem cells. As to conditions: 10 μM small molecules; FIG. 3C, FIG. 4. The procedure: (§1) Bone marrow-derived mesenchymal stem cells subcultured for 5 generations were distributed on a well plate. One day later, the cells were treated with DMEM containing 20% FBS and 10 ng/mL b-FGF for a day, so that the cells could proliferate sufficiently. In order to induce differentiation into nerve cells, the cells were treated with differentiation medium containing the small molecules listed in Table 1. The small molecules were used after being dissolved in DMSO (Sigma, USA). The concentration of DMSO was less than 2% of the entire culture medium, and was diluted so that the small molecules were included with a concentration in the range from 1 μM to 100 μM. As negative control, DMEM containing 10% FBS and 1% penicillin-streptomycin was used. And, retinoic acid as positive control, which is a well-known inducer of differentiation into nerve cells, was used after being diluted to 2 μM in DMEM. Differentiation of muscle-derived stem cells and adipose-derived stem cells into nerve cells was induced similarly as in the bone marrow-derived stem cells.

Experiment [2] has as its system muscle-derived stem cells. The note with it: 10 μM small molecules; FIG. 3B. The procedure: as §1
The subject of experiment [3] is bone marrow-derived mesenchymal stem cells. The note with it: 10 μM small molecules; FIG. 3A. The procedure:
as §1

Regarding `COc1ccc(NC(=O)/C(=C/c2ccc(C(=O)NO)cc2)COc2cccc3ccccc23)cn1` [BHA-4], in experiment [1], the “differentiation (microscopic images)” value is “differentiated”. `O=C(NO)c1ccc2c(c1)NC(CCCc1ccccc1)C(=O)N2` (centres unmarked) [QHA-2]: the “differentiation (microscopic images)” value in experiment [1] is reported as “differentiated”. Also, the “differentiation (inverted microscopic images)” value in experiment [2] and in experiment [3] was “differentiated” throughout. With `O=C(CCc1ccc(C(=O)NO)cc1)Nc1cccc(OCc2ccccc2)c1` [BHA-1], the “differentiation (microscopic images)” value in experiment [1] is given as “differentiated”. For the same compound, the “differentiation (inverted microscopic images)” value in experiment [2] and in experiment [3] was “differentiated” throughout. `O=C(NO)c1ccc(/C=C(/CNc2ccc(-c3ccccc3)cc2)COc2cccc3ccccc23)cc1` [BHA-3]: the “differentiation (microscopic images)” value in experiment [1] was “differentiated”.

For `CC(CCCCC(C)(C)C(=O)NO)C(=O)Nc1ccccc1` (centres unmarked) [AAHA-2], in experiment [1], the “differentiation (microscopic images)” value is listed as “differentiated”.

In the case of `C/C(=C/CCCCC(=O)NO)C(=O)NC1Cc2ccccc2C1` [AAHA-1], in experiment [1], the “differentiation (microscopic images)” value was “differentiated”.

Take `O=C(Nc1ccccc1)/C(=C/c1ccc(C(=O)NO)cc1)COc1ccc2oc3ccccc3c2c1` [BHA-2]: in experiment [1], the “differentiation (microscopic images)” value was “differentiated”.
